Reference: PMC7349888, “Synthesis and Evaluation of Dodecaboranethiol Containing Kojic Acid (KA-BSH) as a Novel Agent for Boron Neutron Capture Therapy” (Cells, 2020)

Tested on: C6 rat glioma cells
Assay: In vitro boron uptake in C6 cells
Type: cell-based
Conditions: Figure S1
Procedure: For the in vitro ^10B uptake study, B16 mouse melanoma cells, C6 rat glioma cells, and F98 rat glioma cells were used. B16 and C6 cells were used for in vitro testing at Osaka Prefecture University. Based on results from initial in vitro screening, the in vitro ^10B uptake study using F98 glioma cells were performed at Osaka Medical College. Four hundred thousand cells were seeded in a tissue culture dish (100 × 20 mm; Becton Dickinson, Franklin Lakes, NJ, USA) with DMEM supplemented with 10% FBS and 10% penicillin and streptomycin at 37 °C in a 5% CO2 atmosphere. After incubation for 4 days at 37 °C, the medium was removed, and DMEM with 10% FBS containing 1 mM KA-BSH, BSH, or BPA was added to each dish. The cells were incubated for an additional 24 h at 37 °C. The medium was then removed, and the cells were washed twice with 4 °C phosphate-buffered saline (PBS) and detached with trypsin–ethylenediamine tetraacetic acid solution. PBS was then added, and cells were digested overnight with 1 N nitric acid solution (Wako Pure Chemical Industries, Osaka, Japan), and ^10B uptake was determined by inductively coupled plasma atomic emission spectrometry (ICP-AES) using an iCAP6000 emission spectrometer (Hitachi High-Technologies, Tokyo, Japan).

Q: Which “boron uptake into cancer cells” value does the source give for “S-(2-(5-hydroxy-4-oxo-4H-pyran-2-yl) methyl) Thioundecahydro-Closo- Dodecaborate (2-) Disodium Salt [KA-BSH]” here?
A: Its value is “taken up into cancer cells”.
